Assays:
spiggin mRNA [1] = experiment: Methyltestosterone induction of spiggin mRNA via water in juvenile fish (slot blot, FIG. 5); assay type: in vivo, three spined stickleback; details: exposure via water, 10 days, whole fish homogenate
Description: Juvenile three spined sticklebacks, with a body weight of approximately 100 mg, were exposed to different doses (100 pM, 10 nM and 1 uM) of methyltestosterone or to a combination of 10 nM methyltestosterone and 10 uM flutamide (an antiandrogen). After 10 days the fish were sacrificed. Whole fish were homogenized and spiggin mRNA levels were determined using slot blot analysis.

spiggin = details: 11-KT treatment; cited from earlier work
spiggin mRNA [2] = experiment: Hormone implant dose response analysis of spiggin mRNA in kidney (slot blot, FIG. 3); assay type: in vivo, three-spined stickleback (Gasterosteus aculeatus); details: hormone in silastic capsule implanted in abdominal cavity, one month exposure
Description: Hormones at different concentrations were dissolved in […] of coconut oil and placed within silastic capsules (Dow Corning, internal diameter 0.6 mm, outer diameter 1.2 mm, length 5 mm). The sealed capsules were implanted into the abdominal cavity of each fish which were subsequently placed in aquaria containing 200 l of brackish water (0.5% salinity) at 17° C. under a stimulatory photoperiod of L:D 16:8. Following one month exposure the fish were sacrificed and the required organs removed by dissection and stored at −70° C.
[…] total RNA was combined with 90 ml of 20×SSC and 60 ml 37% formaldehyde. The final volume was adjusted to 300 ml with MQ water. Each preparation was transferred onto nylon membrane (Amersham Pharmacia Biotech) using a Minifold II Slot Blot apparatus (Schleicher & Schuell). The RNA was bound onto the membrane by cross-linking in a CL-1000 UV apparatus (UVP). Membranes were radioactively probed as described below (Paragraph 10) and the relative levels of mRNA were determined using a GS-250 Molecular Phosphoimager coupled to the Molecular Analyst (Version 1:41) package (Bio Rad). All dose-response determinations were performed in triplicate and the results were expressed as the mean (±SD) for each hormone and dose assayed. […]

In the case of `C[C@]12CCC(=O)C=C1CC[C@@H]1[C@@H]2CC[C@@]2(C)[C@H]1CC[C@]2(C)O` [methyltestosterone], the “Methyltestosterone concentration effective at inducing spiggin mRNA” value (spiggin mRNA [1]) is reported as no less than 100 pM.
In the case of `C[C@]12CC(=O)[C@H]3[C@@H](CCC4=CC(=O)CC[C@@]43C)[C@@H]1CC[C@@H]2O` [11-ketotestosterone], the “Inducibility of spiggin production” value (spiggin) is given as “inducible” and the “Inducibility of spiggin expression in kidney” value (spiggin mRNA [2]) is given as “inducible”.

Source: US20040072183A1, “Adhesive protein and uses thereof” (priority 2000, published 2004)
